Earlier results on one compound are cited in patent publication US10285382B2 (priority 2017, dated 2019).

Read-outs that look alike come from different tables or passages of the source.

Holding throughout (settings): cited from earlier work
The test system of series [1] is Salmonella.
For series [2], the system named is shell surface bacteria.
The test system of series [3] is broiler eggs.
Where [4] appears, read: dipping eggs in 6% H2O2 solution twice, Padron (1995).

On to `OO` [H2O2, hydrogen peroxide], for which, in series [1] ([…] solution applied with a vacuum and a surfactant, Cox et al.), the “treated eggs remaining contaminated” value is on record as 30%. Besides, the “reduction of the number of Salmonella in eggshell membranes” value in series [1] (setting [4]) is recorded as 95%. Besides, the “reduction of the numbers of positive eggs” value in series [1] (setting [4]) was 55%. Besides, in series [2] (3% solution combined with ultraviolet light, Wells et al. (2010)), the “log reduction in bacterial counts (cfu/egg)” value was no more than 3 log. Further, in series [2] (Sheldon and Brake (1991)), the “H2O2 concentration required to disinfect shell surfaces” value is on record as 5 % (vol/vol). For the same compound, the effect on hatchability result in series [3] (broiler eggs, […] fogged, Bailey et al. (1996)) is “did not significantly reduce, or improve”; in series [3] (in vivo) it was “no adverse effect”.
